Laboratory results published in article PMC12676778, “Long-tailed class I myosins rely on tail-mediated phosphoinositide recognition for specific membrane recruitment” (Cell Communication and Signaling : CCS, 2025).

Assays:
Myosin-1B-tail = biological target: T1, Myosin-1B-tail (Dictyostelium discoideum, UniProt P34092); experiment: liposome co-sedimentation, YFP fluorescence of supernatant; format: binding; conditions: PolyPIPosomes (5% PIP, 95% PE + PC), accessible lipid; 10 mM Tris pH 7.5, 100 mM NaCl, 1 mM EGTA, room temperature
T1 construct: gene myoB; tail fragment (TH1, TH2, SH3), residues 717-1111; N-terminal GST and/or C-terminal YFP tags kept; E. coli Rosetta pLysS
T1 sequence (P34092 717-1111): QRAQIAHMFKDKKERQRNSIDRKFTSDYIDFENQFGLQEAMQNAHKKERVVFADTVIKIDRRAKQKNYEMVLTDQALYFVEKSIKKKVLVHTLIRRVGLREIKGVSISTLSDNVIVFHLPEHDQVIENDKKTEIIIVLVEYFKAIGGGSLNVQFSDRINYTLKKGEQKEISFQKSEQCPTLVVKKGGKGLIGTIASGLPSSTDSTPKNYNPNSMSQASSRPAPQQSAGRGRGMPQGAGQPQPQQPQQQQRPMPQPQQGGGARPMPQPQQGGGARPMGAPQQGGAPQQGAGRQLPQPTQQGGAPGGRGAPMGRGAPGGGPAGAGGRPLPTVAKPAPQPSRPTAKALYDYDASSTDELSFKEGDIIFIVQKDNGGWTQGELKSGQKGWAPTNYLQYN
From the text: liposome co-sedimentation, YFP fluorescence of supernatant on Myosin-1B-tail

Myosin-1C-tail = biological target: T2, Myosin-1C-tail (Dictyostelium discoideum, UniProt P42522); experiment: as above; format: binding; conditions: PolyPIPosomes (5% PIP, 95% PE + PC), accessible lipid; 10 mM Tris pH 7.5, 100 mM NaCl, 1 mM EGTA, room temperature
T2 construct: gene myoC; GST and/or YFP tags kept; E. coli Rosetta pLysS
T2 sequence (P42522 699-1182 limits assumed): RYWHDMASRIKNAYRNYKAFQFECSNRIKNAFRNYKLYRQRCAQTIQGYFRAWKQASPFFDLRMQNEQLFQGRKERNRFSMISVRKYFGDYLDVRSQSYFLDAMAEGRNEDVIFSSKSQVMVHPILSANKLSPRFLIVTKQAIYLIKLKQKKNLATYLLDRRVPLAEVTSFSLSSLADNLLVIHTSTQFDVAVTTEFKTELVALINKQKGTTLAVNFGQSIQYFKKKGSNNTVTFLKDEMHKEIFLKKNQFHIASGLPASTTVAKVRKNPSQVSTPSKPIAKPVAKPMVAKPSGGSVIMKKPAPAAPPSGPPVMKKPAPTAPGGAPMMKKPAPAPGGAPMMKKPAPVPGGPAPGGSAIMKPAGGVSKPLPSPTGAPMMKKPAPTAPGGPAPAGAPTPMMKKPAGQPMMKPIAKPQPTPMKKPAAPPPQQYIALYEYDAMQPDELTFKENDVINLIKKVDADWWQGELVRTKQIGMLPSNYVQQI
From the text: liposome co-sedimentation, YFP fluorescence of supernatant on Myosin-1C-tail

Myosin-1D-tail = biological target: T3, Myosin-1D-tail (Dictyostelium discoideum, UniProt P34109); experiment: as above; format: binding; conditions: PolyPIPosomes (5% PIP, 95% PE + PC), accessible lipid; 10 mM Tris pH 7.5, 100 mM NaCl, 1 mM EGTA, room temperature
T3 construct: gene myoD; tail fragment (TH1, SH3, TH2), residues 717-1113; N-terminal GST and/or C-terminal YFP tags kept; E. coli Rosetta pLysS
T3 sequence (P34109 717-1109): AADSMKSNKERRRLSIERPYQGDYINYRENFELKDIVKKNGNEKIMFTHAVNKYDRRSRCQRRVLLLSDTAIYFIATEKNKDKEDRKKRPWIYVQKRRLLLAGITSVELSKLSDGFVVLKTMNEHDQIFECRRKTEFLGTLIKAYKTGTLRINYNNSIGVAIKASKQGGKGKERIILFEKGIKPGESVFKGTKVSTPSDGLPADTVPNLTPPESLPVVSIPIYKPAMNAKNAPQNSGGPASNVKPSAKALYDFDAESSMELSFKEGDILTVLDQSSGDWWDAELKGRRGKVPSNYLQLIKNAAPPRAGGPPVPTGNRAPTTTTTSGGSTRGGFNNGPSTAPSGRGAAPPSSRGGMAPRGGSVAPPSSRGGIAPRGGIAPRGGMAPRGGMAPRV
From the text: liposome co-sedimentation, YFP fluorescence of supernatant on Myosin-1D-tail

Dictyostelium cells = experiment: Myosin-1 localization in LY294002-treated (PI(3,4,5)P3-depleted) cells during endocytosis, confocal imaging; format: cell-based, Dictyostelium discoideum; conditions: 20 µM, starving cells
Procedure: Microtubule depolymerization rates were quantified by measuring individual microtubule length reduction over time using Andor Solis software. Cellular localization of fluorescently tagged myosins and time-lapse imaging were performed on an inverted Leica TCS SP2 AOBS confocal microscope and a Leica DMi8 M system equipped with a 63×/1.4 NA oil immersion objective. Bright-field fluorescence microscopy employed an Olympus IX81 inverted microscope with a 60×/1.49 NA oil immersion lens (ApoN, Olympus). For imaging, cells were seeded on glass-bottom dishes (Ibidi), washed twice with MES buffer (20 mM MES, pH 6.8, 0.2 mM CaCl₂, 2 mM MgCl₂), and maintained in this buffer during acquisition. Phagocytic uptake assays were performed following a 2-hour starvation, after which heat-killed yeast particles were added and time-lapse images recorded. […] Image processing was performed using Leica Confocal Software, and quantitative analysis was conducted with ImageJ (NIH, Bethesda, MD, USA). Fluorescence intensity profiles were obtained by drawing lines along the regions of the cups, as illustrated in Fig. 5. Fluorescence data were normalized to the maximum intensity and interpolated using the interpolation algorithm in Origin to account for variations in cup length. Frames showing association of myosin-1C or myosin-1D with the cups were quantified. […]

| Compound | Kd (Myosin-1B-tail) | Kd (Myosin-1C-tail) | Kd (Myosin-1D-tail) | cortical actin dynamics and association of actin with the early endosome (Dictyostelium cells) | localization of myosin-1C and myosin-1D with endocytic cups and endosomal membranes (Dictyostelium cells) |
| --- | --- | --- | --- | --- | --- |
| PI(3,4)P2 | 2.2 ± 0.4 µM | – | – | – | – |
| PI(3,5)P2 | – | 0.6 ± 0.1 µM | 0.8 ± 0.1 µM | – | – |
| PI(3,4,5)P3 | – | 2.5 ± 0.3 µM | 0.3 ± 0.04 µM | – | – |
| PI(3)P | – | 4 ± 0.3 µM | 1.7 ± 0.3 µM | – | – |
| PI(5)P | 7.7 ± 0.6 µM | 0.5 ± 0.1 µM | – | – | – |
| O=c1cc(N2CCOCC2)oc2c(-c3ccccc3)cccc12 [LY294002] | – | – | – | did not disrupt | almost fully abolished |
| PI(4)P | – | 0.4 ± 0.1 µM | 1.2 ± 0.2 µM | – | – |
| PI(4,5)P2 | – | – | 0.7 ± 0.1 µM | – | – |
